We go through two compounds from patent US5776943A, “Rapamycin metabolites” (American Home Products Corporation, priority 1991, dated 1998).

The experiment has as its system Human lymphocytes. Kind of experiment: PHA-stimulated human lymphocyte proliferation (3H-thymidine incorporation). It counts as cell-based. The protocol: Immunosuppressive activity of the collected fractions was evaluated in an in vitro standard pharmacological test procedure designed to measure lymphocyte proliferation. The procedure used is briefly described below.
Human lymphocytes were isolated from blood anticoagulated with heparin. Blood was centrifuged with ficoll at 545 g at room temperature for 20 min. The lymphocyte layer was washed with phosphate buffered saline by centrifugation at 280 g for 10 min and subsequently with the culture medium (430 g, 10 min). The cells were adjusted to a concentration of 10^6 cells/mL with RPMI 1640 medium supplemented with 2 mM glutamine, 100 U/mL penicillin, 100 μg streptomycin and 10% fetal calf serum. For each fraction evaluated, the 1 g/L solution in methanol was diluted with culture medium to provide a concentration of 1 mg/L. The concentration of metabolite in each fraction was determined by HPLC comparison with an external rapamycin standard curve. A solution composed of 100 μL of the cell suspension, containing 5 mg/L PHA, and 100 μL of the metabolite solution were pipetted into the wells of a 96-well plate. The cells were incubated for 44 h at 37° C. in a 5% CO2 atmosphere. After addition of 1 μCi ^3 H-thymidine/well the cells were incubated for additional 4.5 h. […] The thawed cells were harvested and ^3 H-thymidine incorporation was determined by liquid scintillation counting.

Where two headings read alike, the source gives them in different places.

As usually defined, the IC50 is the midpoint of a concentration-inhibition curve. `CO[C@H]1C[C@@H]2CC[C@@H](C)[C@@](O)(O2)C(=O)C(=O)N2CCCC[C@H]2C(=O)O[C@H]([C@H](C)C[C@@H]2CC[C@@H](O)[C@H](O)C2)CC(=O)[C@H](C)/C=C(\C)[C@@H](O)[C@@H](OC)C(=O)[C@H](C)C[C@H](C)/C=C/C=C/C=C/1C` [Example 1, 41-O-Desmethyl rapamycin]: under “lymphocyte proliferation, human lymphocytes from heparin blood, PHA, incubated 44 h at 37° C., then 3H-thymidine 4.5 h, read-out: IC50”, the IC50 came to 1 nM.

Regarding `CO[C@H]1C[C@@H]2CC[C@@H](C)[C@@](O)(O2)C(=O)C(=O)N2CCCC[C@H]2C(=O)O[C@H]([C@H](C)C[C@@H]2CC[C@@H](O)[C@H](OC)C2)CC(=O)[C@H](C)/C=C(\C)[C@@H](O)[C@@H](OC)C(=O)[C@H](C)C[C@H](C)/C=C/C=C/C=C/1C` [Rapamycin, rapamycin], for the setting “Homo sapiens, Lymphocyte”, the IC50 is 0.1 nM.
